Consider 23 compounds from patent publication US8148391B2 (Cephalon, Inc., priority 2006, dated 2012).

Like-named read-outs stand apart in the source and are kept apart here.

Experiment [1] addresses T1, baculovirus-expressed ALK (Homo sapiens, UniProt Q9UM73).
T1 construct: host or cells: baculovirus expression system
As to the kind of experiment: ALK Kinase Assay (ELISA-type, time-resolved fluorescence). The experiment is classed as biochemical. The gist of the method:
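Plates coated with phospholipase C-γ substrate (10 μg/mL in TBS); reaction started with 30 ng/ml ALK and run 15 min at 37° C. Phosphorylated substrate detected with Eu-N1-labeled PT66 antibody. IC50 from sigmoidal variable-slope fit of percent inhibition vs log concentration.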
A general note: In an ELISA, binding on a coated surface is turned into a signal by an enzyme label.

The target in experiment [2] is T2, c-Met (cytoplasmic domain) (Homo sapiens, UniProt P08581).
T2 construct: 10 ng/mL c-Met (cytoplasmic domain, Invitrogen Corporation #PV3143); purchased Invitrogen Corporation PV3143
Kind of experiment: c-Met Kinase Assay (same methods as for ALK, with modifications). In kind it is biochemical. The gist of the method:
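Plates were coated with phospholipase C-γ substrate (10 μg/mL) in TBS, and the reaction was started with 10 ng/mL c-Met cytoplasmic domain and run 15 min at 37 °C. Phosphoproduct was detected with Eu-N1-labelled PT66 antibody. IC50 came from a variable-slope sigmoidal fit of percent inhibition vs log concentration.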

The mark [3] stands for this setting: ALK kinase inhibition, 1 μM ATP (Km level), read-out: ALK Activity.
The mark [4] stands for this setting: c-Met kinase inhibition, 1 μM ATP (Km level), read-out: cMet Activity.
Setting [5] is: ALK kinase inhibition, 1 μM ATP, read-out: ALK Activity.
Where [6] appears, read: c-Met kinase inhibition, 1 μM ATP, read-out: cMet Activity.
Where [7] appears, read: 1 μM ATP (Km level), 30 ng/ml ALK, 37° C., 15 minutes, read-out: ALK Activity (ALK kinase inhibition, IC50 class).
Setting [8] is: 1 μM ATP (Km level), 10 ng/mL c-Met, read-out: cMet Activity (c-Met kinase inhibition, IC50 class).

T1 sequence (Q9UM73 19-1620): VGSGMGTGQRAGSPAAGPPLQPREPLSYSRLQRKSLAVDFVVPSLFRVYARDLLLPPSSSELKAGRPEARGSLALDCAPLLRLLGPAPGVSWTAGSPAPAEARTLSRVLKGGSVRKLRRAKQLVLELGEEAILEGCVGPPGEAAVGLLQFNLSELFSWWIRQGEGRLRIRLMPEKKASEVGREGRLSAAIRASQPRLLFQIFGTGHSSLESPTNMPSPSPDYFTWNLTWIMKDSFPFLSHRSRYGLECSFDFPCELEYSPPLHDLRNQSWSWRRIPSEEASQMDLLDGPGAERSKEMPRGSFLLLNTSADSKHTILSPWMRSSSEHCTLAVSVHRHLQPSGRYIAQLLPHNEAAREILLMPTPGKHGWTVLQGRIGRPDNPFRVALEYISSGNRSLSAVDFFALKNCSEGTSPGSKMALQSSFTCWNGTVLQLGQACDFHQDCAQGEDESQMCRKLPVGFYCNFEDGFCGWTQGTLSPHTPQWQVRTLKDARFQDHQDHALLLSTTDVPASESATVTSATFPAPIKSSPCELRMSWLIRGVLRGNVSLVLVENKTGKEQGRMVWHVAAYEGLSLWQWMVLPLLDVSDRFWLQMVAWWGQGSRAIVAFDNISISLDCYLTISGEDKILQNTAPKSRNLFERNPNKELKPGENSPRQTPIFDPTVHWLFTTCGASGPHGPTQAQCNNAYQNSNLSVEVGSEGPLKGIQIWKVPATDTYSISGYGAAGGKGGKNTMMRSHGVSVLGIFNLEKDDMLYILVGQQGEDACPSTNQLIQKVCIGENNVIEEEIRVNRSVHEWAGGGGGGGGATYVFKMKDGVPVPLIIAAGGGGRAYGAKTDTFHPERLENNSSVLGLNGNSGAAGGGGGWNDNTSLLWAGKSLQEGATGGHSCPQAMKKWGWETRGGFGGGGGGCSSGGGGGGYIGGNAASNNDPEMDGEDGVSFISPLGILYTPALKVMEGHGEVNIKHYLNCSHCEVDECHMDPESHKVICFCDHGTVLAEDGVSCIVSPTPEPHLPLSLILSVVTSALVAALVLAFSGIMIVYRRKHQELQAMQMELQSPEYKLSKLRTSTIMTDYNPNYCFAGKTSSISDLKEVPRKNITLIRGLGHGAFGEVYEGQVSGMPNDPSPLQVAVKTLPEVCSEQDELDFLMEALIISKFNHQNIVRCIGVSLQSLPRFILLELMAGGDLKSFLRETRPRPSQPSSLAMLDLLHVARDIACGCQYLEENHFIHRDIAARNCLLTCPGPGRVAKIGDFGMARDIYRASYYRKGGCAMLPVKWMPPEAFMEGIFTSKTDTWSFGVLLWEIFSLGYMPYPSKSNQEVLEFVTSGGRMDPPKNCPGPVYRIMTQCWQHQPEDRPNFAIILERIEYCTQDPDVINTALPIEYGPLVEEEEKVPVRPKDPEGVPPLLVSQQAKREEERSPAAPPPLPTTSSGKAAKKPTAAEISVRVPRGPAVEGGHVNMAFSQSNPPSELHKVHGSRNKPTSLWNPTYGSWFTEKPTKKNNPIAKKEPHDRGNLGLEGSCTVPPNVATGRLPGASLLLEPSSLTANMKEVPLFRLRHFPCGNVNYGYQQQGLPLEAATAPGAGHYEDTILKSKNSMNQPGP
T2 sequence (P08581 956-1390 limits assumed): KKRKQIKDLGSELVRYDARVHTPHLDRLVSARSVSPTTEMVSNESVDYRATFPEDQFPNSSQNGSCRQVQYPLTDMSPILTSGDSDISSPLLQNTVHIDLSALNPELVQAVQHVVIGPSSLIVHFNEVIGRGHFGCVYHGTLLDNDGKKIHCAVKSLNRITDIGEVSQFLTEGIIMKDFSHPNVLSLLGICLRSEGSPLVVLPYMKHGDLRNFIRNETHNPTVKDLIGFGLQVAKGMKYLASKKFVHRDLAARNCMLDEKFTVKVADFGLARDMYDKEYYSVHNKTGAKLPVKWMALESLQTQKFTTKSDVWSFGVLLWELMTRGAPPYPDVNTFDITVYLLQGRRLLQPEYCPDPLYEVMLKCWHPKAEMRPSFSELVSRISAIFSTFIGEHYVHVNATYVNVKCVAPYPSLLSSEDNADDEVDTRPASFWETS

Regarding `C#CCNC(=O)c1cccc(F)c1Nc1nc(Nc2ccc3c(c2)N(CC)C(=O)CN(C(=O)OCC)C3)ncc1Cl` [Example 1876, 8-[5-Chloro-4-(2-fluoro-6-prop-2-ynylcarbamoyl-phenylamino)-pyrimidin-2-ylamino]-1-ethyl-2-oxo-1,2,3,5-tetrahydro-benzo[e][1,4]diazepine-4-carboxylic acid ethyl ester], the IC50 is 100 to 1000 nM in experiment [1] (setting [3]) and under 100 nM in experiment [2] (setting [4]).
Consider `CNC(=O)c1scc(C)c1Nc1nc(Nc2ccc3c(c2)NC(=O)CN(C(=O)C(F)(F)F)C3)ncc1Cl` [Example 1866, 3-{5-Chloro-2-[2-oxo-4-(2,2,2-trifluoro-acetyl)-2,3,4,5-tetrahydro-1H-benzo[e][1,4]diazepin-8-ylamino]-pyrimidin-4-ylamino}-4-methyl-thiophene-2-carboxylic acid methylamide], for which the IC50 in experiment [1] (setting [5]) fell in the range of 1000 to 10000 nM; in experiment [2] (setting [6]) it was 100 to 1000 nM.
In the same order, the values of `CCN1C(=O)C(NC(=O)COC)CC(C)(C)c2ccc(Nc3ncc(Cl)c(Nc4c(F)cccc4C(=O)NC)n3)cc21` (stereo not shown) [Example 1644, 2-{5-Chloro-2-[1-ethyl-3-(2-methoxy-acetylamino)-5,5-dimethyl-2-oxo-2,3,4,5-tetrahydro-1H-benzo[b]azepin-8-ylamino]-pyrimidin-4-ylamino}-3-fluoro-N-methyl-benzamide] are 100 to 1000 nM and under 100 nM.
Take `C#CCN1C2CCC1c1cc(Nc3ncc(Cl)c(Nc4ccccc4C(=O)NC)n3)ccc1C2` (stereo not shown) [Example 69, 2-[5-Chloro-2-(12-prop-2-ynyl-12-aza-tricyclo[7.2.1.0*2,7*]dodeca-2(7),3,5-trien-4-ylamino)-pyrimidin-4-ylamino]-N-methyl-benzamide]: the IC50 in experiment [1] (setting [3]) and in experiment [2] (setting [4]) was under 100 nM throughout.
On to `COc1cc(N2CCOCC2)ccc1Nc1nc(Nc2ccc3c(c2)N(C(C)C)CCCC3(C)C)ncc1Cl` [Example 1629, 5-Chloro-N*2*-(1-isopropyl-5,5-dimethyl-2,3,4,5-tetrahydro-1H-benzo[b]azepin-8-yl)-N*4*-(2-methoxy-4-morpholin-4-yl-phenyl)-pyrimidine-2,4-diamine], for which the IC50 in experiment [1] (setting [5]) was 100 to 1000 nM; in experiment [2] (setting [6]), over 10000 nM.
Taken in the same sequence, the figures for `CNC(=O)c1ccccc1Nc1nc(Nc2ccc3c(c2)NC(=O)CNC3)ncc1Cl` [Example 1858, 2-[5-Chloro-2-(2-oxo-2,3,4,5-tetrahydro-1H-benzo[e][1,4]diazepin-8-ylamino)-pyrimidin-4-ylamino]-N-methyl-benzamide] were 100 to 1000 nM and under 100 nM.
Regarding `CCN1C(=O)C(N)CCc2c1ccc(Nc1ncc(Cl)c(Nc3ccc(N(C)C)cc3OC)n1)c2OC` (stereo not shown) [Example 1343, 3-Amino-7-[5-chloro-4-(4-dimethylamino-2-methoxy-phenylamino)-pyrimidin-2-ylamino]-1-ethyl-6-methoxy-1,3,4,5-tetrahydro-benzo[b]azepin-2-one], the results for the IC50 in experiment [1] (setting [7]) and in experiment [2] (setting [8]) were under 100 nM and over 10000 nM, respectively.
As to `CCN1CCCOc2cc(Nc3ncc(Cl)c(Nc4ccc(N5CCOCC5)cc4OC)n3)ccc21` [Example 1694, 5-Chloro-N*2*-(9-ethyl-6,7,8,9-tetrahydro-5-oxa-9-aza-benzocyclohepten-3-yl)-N*4*-(2-methoxy-4-morpholin-4-yl-phenyl)-pyrimidine-2,4-diamine], the IC50 in experiment [1] (setting [5]) was under 100 nM; in experiment [2] (setting [6]), 1000 to 10000 nM.
As for `COc1cc2c(cc1Nc1ncc(Cl)c(N[C@@H]3CCCC[C@H]3NS(C)(=O)=O)n1)NC(=O)CN(C(=O)C(F)(F)F)C2(C)C` [Example 1463, N-((1R,2R)-2-{5-Chloro-2-[7-methoxy-5,5-dimethyl-2-oxo-4-(2,2,2-trifluoro-acetyl)-2,3,4,5-tetrahydro-1H-benzo[e][1,4]diazepin-8-ylamino]-pyrimidin-4-ylamino}-cyclohexyl)-methanesulfonamide], the IC50 was under 100 nM in experiment [1] (setting [5]) and over 10000 nM in experiment [2] (setting [6]).
Regarding “5-Chloro-N*2*,N*4*-bis-(3-ethyl-2,3,4,5-tetrahydro-1H-benzo[d]azepin-7-yl)-pyridine-2,4-diamine [Example 199]”, the results for the IC50 in experiment [1] (setting [3]) and in experiment [2] (setting [4]) were under 100 nM and 1000 to 10000 nM, respectively.
As to `Cc1nnc(-c2ccccc2Nc2nc(Nc3ccc4c(c3)CCOC(=O)N4C)ncc2Cl)o1` [Example 1786, 2-{5-Chloro-4-[2-(5-methyl-[1,3,4]oxadiazol-2-yl)-phenylamino]-pyrimidin-2-ylamino}-5-methyl-8,9-dihydro-5H-7-oxa-5-aza-benzocyclohepten-6-one], the IC50 in experiment [1] (setting [5]) was 100 to 1000 nM; in experiment [2] (setting [6]), under 100 nM.
Take `COCCN1CCc2ccc(OC)c(Nc3ncc(Cl)c(N[C@H]4[C@@H](C(N)=O)[C@@H]5C=C[C@H]4C5)n3)c2CC1` (relative stereo) [Example 245, (2-exo,3-exo)-3-{5-Chloro-2-[7-methoxy-3-(2-methoxy-ethyl)-2,3,4,5-tetrahydro-1H-benzo[d]azepin-6-ylamino]-pyrimidin-4-ylamino}-bicyclo[2.2.1]hept-5-ene-2-carboxylic acid amide]: the IC50 in experiment [1] (setting [3]) is 1000 to 10000 nM; in experiment [2] (setting [4]), over 10000 nM.
Take `COc1cc2c(cc1Nc1ncc(Cl)c(Nc3ccccc3S(=O)(=O)N(C)C)n1)N(CC(=O)N(C)C)C(=O)CN(CC(=O)N(C)C)C2` [Example 1656, 2-{8-[5-Chloro-4-(2-dimethylsulfamoyl-phenylamino)-pyrimidin-2-ylamino]-1-dimethylcarbamoylmethyl-7-methoxy-2-oxo-1,2,3,5-tetrahydro-benzo[e][1,4]diazepin-4-yl}-N,N-dimethyl-acetamide]: the figures for the IC50 in experiment [1] (setting [5]) and in experiment [2] (setting [6]) were 100 to 1000 nM and over 10000 nM, respectively.
In the same order, the values of `CNC(=O)c1scc(C)c1Nc1nc(Nc2ccc3c(c2)CCC(=O)NC3(C)C)ncc1Cl` [Example 1829] are 1000 to 10000 nM and under 100 nM.
For the compound `CCN1C(=O)[C@@H](NC(=O)CN(C)C)CCc2c1ccc(Nc1ncc(Cl)c(N[C@H]3[C@@H](C(N)=O)[C@@H]4C=C[C@H]3C4)n1)c2OC` (single isomer, unassigned) [Example 1355], the IC50 in experiment [1] (setting [7]) is under 100 nM; in experiment [2] (setting [8]), over 10000 nM.
Regarding `CCN1C(=O)CCCc2cc(Nc3ncc(Cl)c(Nc4cc(Cl)ccc4OC)n3)c(OC)cc21` [Example 137, 7-[5-Chloro-4-(5-chloro-2-methoxy-phenylamino)-pyrimidin-2-ylamino]-1-ethyl-8-methoxy-1,3,4,5-tetrahydro-benzo[b]azepin-2-one], the IC50 in experiment [1] (setting [3]) was 100 to 1000 nM; in experiment [2] (setting [4]), over 10000 nM.
`COc1cc(N2CCOCC2)ccc1Nc1nc(Nc2ccc3c(c2OC)CCC(NCCO)CC3)ncc1Cl` (stereo not shown) [Example 705, 2-{2-[5-Chloro-4-(2-methoxy-4-morpholin-4-yl-phenylamino)-pyrimidin-2-ylamino]-1-methoxy-6,7,8,9-tetrahydro-5H-benzocyclohepten-7-ylamino}-ethanol]: the IC50 in experiment [1] (1 μM ATP (Km level), read-out: ALK Activity (ALK Kinase Inhibition, IC50)) was under 100 nM; in experiment [2] (1 μM ATP (Km level), read-out: cMet Activity (c-Met Kinase Inhibition, IC50)) it was over 10000 nM.
`COCCN1CCN(C)c2ccc(Nc3ncc(Cl)c(Nc4ccccc4NS(C)(=O)=O)n3)cc2C1` [Example 429, N-(2-{5-Chloro-2-[4-(2-methoxy-ethyl)-1-methyl-2,3,4,5-tetrahydro-1H-benzo[e][1,4]diazepin-7-ylamino]-pyrimidin-4-ylamino}-phenyl)-methanesulfonamide]: the IC50 is under 100 nM in experiment [1] (setting [3]) and 100 to 1000 nM in experiment [2] (setting [4]).
As to `CCN1CCCOc2ccc(Nc3ncc(Cl)c(Nc4c(F)cc(-c5cnn(C)c5)cc4C(=O)NC)n3)cc21` [Example 1425, 2-[5-Chloro-2-(9-ethyl-6,7,8,9-tetrahydro-5-oxa-9-aza-benzocyclohepten-2-ylamino)-pyrimidin-4-ylamino]-3-fluoro-N-methyl-5-(1-methyl-1H-pyrazol-4-yl)-benzamide], the IC50 in experiment [1] (setting [7]) and in experiment [2] (setting [8]) was under 100 nM in each case.
With `COc1cc2c(cc1Nc1ncc(Cl)c(N[C@@H]3CCCC[C@H]3NS(C)(=O)=O)n1)CCC(NCCO)CC2` (single isomer, unassigned) [Example 1094], the IC50 is under 100 nM in experiment [1] (setting [7]) and over 10000 nM in experiment [2] (setting [8]).
In the same order, the values of `CNC(=O)CN1CCc2cc(Nc3ncc(Cl)c(Nc4cc(Cl)ccc4OC)n3)c(OC)cc2CC1` [Example 1118, 2-{7-[5-Chloro-4-(5-chloro-2-methoxy-phenylamino)-pyrimidin-2-ylamino]-8-methoxy-1,2,4,5-tetrahydro-benzo[d]azepin-3-yl}-N-methyl-acetamide] are under 100 nM and over 10000 nM.
Regarding `COCCN1CC(=O)Nc2cc(Nc3ncc(Cl)c(N[C@@H]4CCCC[C@H]4NS(C)(=O)=O)n3)c(OC)cc2C1` [Example 1664, N-(1R,2R)-(2-{5-Chloro-2-[7-methoxy-4-(2-methoxy-ethyl)-2-oxo-2,3,4,5-tetrahydro-1H-benzo[e][1,4]diazepin-8-ylamino]-pyrimidin-4-ylamino}-cyclohexyl)-methanesulfonamide], the IC50 in experiment [1] (setting [5]) was under 100 nM; in experiment [2] (setting [6]), over 10000 nM.
Turning to `CCN1C(=O)CCCc2cc(Nc3ncc(Cl)c(Nc4ccccc4-n4cccn4)n3)c(OC)cc21` [Example 1317, 7-[5-Chloro-4-(2-pyrazol-1-yl-phenylamino)-pyrimidin-2-ylamino]-1-ethyl-8-methoxy-1,3,4,5-tetrahydro-benzo[b]azepin-2-one], the IC50 in experiment [1] (setting [7]) is under 100 nM; in experiment [2] (setting [8]), over 10000 nM.
